Values quoted from earlier work in paper PMC7904743, “WIDOCK: a reactive docking protocol for virtual screening of covalent inhibitors” (Journal of Computer-Aided Molecular Design, 2021).
Where two headings read alike, the source gives them in different places.

Legend:
[1] = thiol reactivity, cited from earlier work
[2] = system: OTUB2; settings: experimental actives if % labeling higher than 50%, cited from earlier work
[3] = system: NUDT7; settings: protein labeling at 200 μM; experimental actives if % labeling higher than 50%; cited from earlier work
[4] = natural log of average kinetic rate constant
[5] = natural log of average rate constant
[6] = natural log of average rate constant k
[7] = natural logarithm of average rate constant

| Compound | ln(avg k) [1, 4] | ln(avg k) [1, 5] | OTUB2 % labeling ([2]; OTUB2 protein labeling) | NUDT7 % labeling [3] | ln(avg k) [1, 6] | ln(avg k) [1, 7] | OTUB2 % labeling [2] |
| --- | --- | --- | --- | --- | --- | --- | --- |
| CN(Cc1ccccc1)C(=O)CCl [PCM-0102984, CN(Cc1ccccc1)C(=O)CCl] | -16.386 | -16.386 | 0% | 11% | – | – | – |
| Cc1cccc(CNC(=O)CCl)c1 [PCM-0102821, Cc1cccc(CNC(=O)CCl)c1] | -16.579 | -16.579 | 86% | 0% | – | – | – |
| O=C(CCl)N1CCN(S(=O)(=O)c2cccc(F)c2)CC1 [PCM-0102327, O=C(CCl)N1CCN(S(=O)(=O)c2cccc(F)c2)CC1] | – | – | – | 13% | -15.130 | -15.130 | 0% |
| O=C(CCl)NC(=O)Nc1ccc2c(c1)OCCCO2 [PCM-0102910, O=C(CCl)NC(=O)Nc1ccc2c(c1)OCCCO2] | -16.097 | -16.097 | 0% | 0% | – | – | – |
| Cc1nn(-c2ccccc2)c(C)c1NC(=O)CCl [PCM-0102501, Cc1nn(-c2ccccc2)c(C)c1NC(=O)CCl] | – | – | – | 9% | -16.489 | -16.489 | 9% |
| O=C(CCl)NC1CCN(C2CC2)CC1 [PCM-0103055, O=C(CCl)NC1CCN(C2CC2)CC1] | -16.125 | -16.125 | 0% | 0% | – | – | – |
| CN(Cc1cnn(C)c1)C(=O)CCl [PCM-0102899, CN(Cc1cnn(C)c1)C(=O)CCl] | -15.596 | -15.596 | 26% | 8% | – | – | – |
| O=C(CCl)Nc1ccncc1 [PCM-0102930, O=C(CCl)Nc1ccncc1] | -16.813 | -16.813 | 0% | 0% | – | – | – |
| C#CCN1CCN(C(=O)CCl)CC1 [PCM-0102811, C#CCN1CCN(C(=O)CCl)CC1] | -15.973 | -15.973 | 0% | 0% | – | – | – |
| NS(=O)(=O)c1cccc(NC(=O)CCl)c1 [PCM-0102162, NS(=O)(=O)c1cccc(NC(=O)CCl)c1] | – | – | – | 0% | -15.171 | -15.171 | 58% |
| O=C(CCl)N1N=C(c2cccs2)CC1c1ccco1 (stereo not shown) [PCM-0102295, O=C(CCl)N1N=C(c2cccs2)CC1c1ccco1] | – | – | – | 46% | -14.545 | -14.545 | 6% |
| CN(Cc1ccc(F)cc1)C(=O)CCl [PCM-0102939, CN(Cc1ccc(F)cc1)C(=O)CCl] | -16.214 | -16.214 | 10% | 0% | – | – | – |
| COc1ccc(NC(=O)CCl)cn1 [PCM-0102140, COc1ccc(NC(=O)CCl)cn1] | – | – | – | 0% | -13.166 | -13.166 | 0% |
| CN(Cc1cccc(C(F)(F)F)c1)C(=O)CCl [PCM-0102987, CN(Cc1cccc(C(F)(F)F)c1)C(=O)CCl] | -15.786 | -15.786 | 0% | 9% | – | – | – |
| CCC1CCCCN1C(=O)CCl (stereo not shown) [PCM-0102828, CCC1CCCCN1C(=O)CCl] | -16.282 | -16.282 | 0% | 4% | – | – | – |
| O=C(CCl)N1CCSc2ccccc21 [PCM-0102415, O=C(CCl)N1CCSc2ccccc21] | – | – | – | 10% | -15.511 | -15.511 | 16% |
| CC(c1ccc(F)cc1)N(C)C(=O)CCl (stereo not shown) [PCM-0102783, CC(c1ccc(F)cc1)N(C)C(=O)CCl] | -16.224 | -16.224 | 0% | 19% | – | – | – |
| COC(=O)c1ccc(C)c(NC(=O)CCl)c1 [PCM-0103027, COC(=O)c1ccc(C)c(NC(=O)CCl)c1] | -16.113 | -16.113 | 0% | 5% | – | – | – |
| CC1CCN(C(=O)CCl)CC1 [PCM-0102945, CC1CCN(C(=O)CCl)CC1] | -16.826 | -16.826 | 0% | 0% | – | – | – |
| CC(NC(=O)CCl)c1ccc2c(c1)OCCO2 (stereo not shown) [PCM-0102342, CC(NC(=O)CCl)c1ccc2c(c1)OCCO2] | – | – | – | 8% | -16.412 | -16.412 | 57% |
| Cc1ccc(Cl)cc1NC(=O)CCl [PCM-0102354, Cc1ccc(Cl)cc1NC(=O)CCl] | – | – | – | 0% | -16.394 | -16.394 | 0% |
| CC(NC(=O)CCl)c1ccc(Cl)cc1 (stereo not shown) [PCM-0102334, CC(NC(=O)CCl)c1ccc(Cl)cc1] | – | – | – | 0% | -16.367 | -16.367 | 25% |
